Laboratory results taken from patent US8158621B2, “Methods of treating or preventing autoimmune diseases with 2,4-pyrimidinediamine compounds” (Rigel Pharmaceuticals, Inc., priority 2002, dated 2012).

Tests used:
B-cell line BJAB = assay: BJAB (B-cell) toxicity, light scatter; assay type: cell-based; settings: read-out: Toxicity BJAB Light Scat.
Protocol: The B-cell line BJAB was cultured in log phase in RPMI1640+10% heat-inactivated fetal bovine serum, 1× L-glutamine, 1× penicillin, 1× […] and 1× beta-mercaptoethanol at 37° C., 5% CO2. First, BJABs were harvested, spun and resuspended in culture medium to a concentration of 7.7×10^5 cells/mL. 65 uL cells were mixed with 65 uL compound, in duplicate and in the presence of 0.1% DMSO in a V-bottomed 96-well tissue culture plate. Cells were incubated with compound at various dilutions at 37° C., 5% CO2. Toxicity was assessed by flow cytometric analysis of cellular light scatter.

[1] = system: basophil cells (human peripheral blood); assay: Basophil ionomycin activation: histamine release assay; assay type: cell-based; settings: basophils, ionomycin activation, histamine release; read-out: Basophils Ionomycin Histamine IC50
Protocol: (§1) The basophil activation assay was carried out using whole human peripheral blood from donors allergic to dust mites with the majority of the red blood cells removed by dextran sedimentation. Human peripheral blood was mixed 1:1 with 3% dextran T500 and RBCs were allowed to settle for 20-25min. The upper fraction was diluted with 3 volumes of D-PBS and cells were spun down for 10 min at 1500 rpm, RT. Supernatant was aspirated and cells were washed in an equal volume MT-buffer. Finally, cells were resuspended in MT-buffer containing 0.5% DMSO in the original blood volume. 80 uL cells were mixed with 20 uL compound in the presence of 0.5% DMSO, in triplicate, in a V-bottom 96-well tissue culture plate. A dose range of 8 compound concentrations was tested resulting in a 10-point dose response curve including maximum (stimulated) and minimum (unstimulated) response. […] The cells were stimulated for 30 minutes at 37° C., 5% CO2. The plate was spun for 10 min at 1500 rpm at room temperature and 80 uL the supernatant was harvested for histamine content analysis using the histamine ELISA kit supplied by Immunotech. The ELISA was performed according to supplier's instructions.
Assays for ionomycin-induced basophil cell degranulation were carried out as described for the Basophil IgE or Dustmite Activation Assay (Section 7.5.5, supra), with the exception that following incubation with compound, cells were stimulated with 20 μl of 2 μM ionomycin.

[2] = system: cultured human mast cells (CHMC); assay: CHMC low cell density IgE activation: LTC4 assay; assay type: cell-based; settings: anti-IgE activation, LTC4 release
Method in brief: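 Degranulation measured after 30 min anti-IgE challenge at 37° C of CHMC plated at 1000-1500 cells/well following 1 h preincubation. Readouts: LTC4 by ELISA on donor-specific diluted supernatants, and tryptase activity from a 30 min room-temperature substrate reaction.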

[3] = system: cultured human mast cells (CHMC); assay: CHMC low cell density IgE activation: hexosaminidase assay; assay type: cell-based; settings: anti-IgE activation, hexosaminidase release, read-out: CHMC anti-IgE Hexos. IC50
Protocol: (§2) Inhibition of degranulation was measured at both low and high cell density by quantifying the release of the granule specific factors tryptase, histamine and hexosaminidase. Inhibition of release and/or synthesis of lipid mediators was assessed by measuring the release of leukotriene LTC4 and inhibition of release and/or synthesis of cytokines was monitored by quantifying TNF-α, IL-6 and IL-13. Tryptase and hexosaminidase were quantified using fluorogenic substrates as described in their respective examples. Histamine, TNFα, IL-6, IL-13 and LTC4 were quantified using the following commercial ELISA kits: histamine (Immunotech #2015, Beckman Coulter), TNFα (Biosource #KHC3011), IL-6 (Biosource #KMC0061), IL-13 (Biosource #KHC0132) and LTC4 (Cayman Chemical #520211). The protocols of the various assays are provided below.

[4] = system: bone marrow derived mast cells (BMMC); assay: BMMC high cell density IgE activation: hexosaminidase; assay type: cell-based, mouse
[5] = system: basophil cells (human peripheral blood); assay: Basophil anti-IgE activation: histamine release assay; assay type: cell-based; settings: basophils, anti-IgE activation, histamine release; read-out: Basophils anti-IgE Histamine IC50
Protocol: as §1

Jurkat cells = assay: Jurkat (T-cell) toxicity, light scatter; assay type: cell-based, human; settings: read-out: Toxicity Jurkat Light Scat.
Protocol: Dilute Jurkat cells to 2×10^5 cells/ml in complete RPMI (10% heat-inactivated fetal bovine serum) media and incubate at 37° C., 5% CO2 for 18 hours. Add 65 ul cells at 7.7×10^5 cells/ml to a 96-well V-bottom plate (TC-treated, Costar) containing 65 ul 2× compound (final vehicle concentration is 0.5% DMSO, 1.5% MeOH). Mix, incubate plates for 18-24 hr at 37° C., 5% CO2. Toxicity was assessed by flow cytometric analysis of cellular light scatter

[6] = system: Human Jurkat T-cells (clone N); assay: Jurkat T-cell activation (anti-TCR, CD69 upregulation); assay type: cell-based
Method in brief: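 Readout is CD69 upregulation by flow cytometry (anti-CD69-APC, 20 min at 4 °C) after 20 h anti-TCR (C305, 500 ng/ml) stimulation at 37 °C.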

[7] = system: bone marrow derived mast cells (BMMC); assay: BMMC high cell density ionomycin activation: hexosaminidase; assay type: cell-based, mouse; settings: read-out: BMMC Ionomycin Hexos.
Protocol: Add 50 uL of BMMC cell supernatant (see above) to the hexoseaminidase substrate, place at 37° C. for 30 minutes and read the plate at 5, 10, 15, and 30 minutes on a spectrophotometer.

[8] = system: cultured human mast cells (CHMC); assay: CHMC low cell density ionomycin activation: hexosaminidase assay; assay type: cell-based; settings: hexosaminidase release, read-out: CHMC Ionomycin Hexos. IC50
Protocol: as §2

[9] = system: cultured human mast cells (CHMC); assay: CHMC low cell density ionomycin activation: tryptase assay; assay type: cell-based
[10] = system: bone marrow derived mast cells (BMMC); assay: BMMC high cell density IgE activation: TNFalpha; assay type: cell-based, mouse; settings: high cell density; read-out: BMMC anti-IgE TNF-alpha
Protocol: (§3) After sensitizing, cells are counted, pelleted (1000 rpm, 5-10 minutes), and resuspended at 1-3×10^6 cells/ml in MT buffer. Add 100 ul of cell suspension to each well and 100 ul of compound dilutions. The final vehicle concentration is 0.5% DMSO. Incubate at 37° C. (5% CO2) for 1 hour. After 1 hour of compound treatment, stimulate cells with 6× stimulus (60 ng/ml DNP-BSA). Mix wells with the cells and allow plates to incubate at 37° C. (5% CO2) for one hour. After 1 hour incubation, pellet cells (10 minutes, 1000 RPM) and collect 200 ul per well of the supernatant, being careful not to disturb pellet, and transfer to a clean tube or 96-well plate. Place the supernatant plate on ice. During the 4-5 hour step (see next) perform the hexosiminidase assay. Resuspend cell pellet in 240 ul WEI-conditioned media containing 0.5% DMSO and corresponding concentration of compound. Incubate BMMC cells for 4-5 hours at 37° C. (5% CO2). After incubation, pellet cells (1000 RPM, 10 minutes) and collect 225 ul per well and place in −80° C. until ready to perform ELISAS. ELISAS are performed on appropriately diluted samples (determined empirically for each donor cell population so that the sample measurement falls within the standard curve) following the supplier's instructions.

Primary T-cells [11] = assay: Primary T-cell cytokine production (αCD3/αCD28): IFNg; assay type: cell-based, human; settings: read-out: 1° T-Cell IFNg IC50
Protocol: (§4) 2E8-4E8 PBMC or proliferating T cells grown in rIL-2 from healthy human donors were suspended in PBS were spun down (1500 rpm, 8-10 minutes) and resuspended in 100 ml RPMI Complete media (1% Pen-Strep, 1% L-Glutamine, 10 mM HEPES). The cells were plated in T175 flasks (37° C., 5% CO2) and monocytes were allowed to adhere for 2-3 hours. After monocyte attachment, non-adherent cells were harvested, counted by hemocytometer, washed several times with PBS then resuspended in Yssels Complete Media (Modified IMDM Media with 1% Human AB Serum, 1% Pen-Strep, 1% L-Glutamine, 10 mM HEPES) at […]. 90 uL of the cell dilution were then added to compounds diluted to 2× in Yssel's media and incubated for 30 minutes at 37° C. (5% CO2). After this preincubation step the compound/cell mixture was transferred to stimulation plates, as described below.
(§5) Stimulation plates were prepared by coating 96 well plates with 5 μg/ml αCD3 (BD PharMingen, Catalog #555336)+10 μg/ml αCD28 (Beckman Coulter, Catalog #IM1376) in PBS (no Ca^2+/Mg^2+) at 37° C. (5% CO2) for at 3-5 hours. After incubation with the stimulation antibodies, the cocktail was removed and the plates washed 3 times with PBS prior to addition of the primary T cell/compound mixture.
(§6) The compound/cell mixture was transferred to the stimulation plates and incubated for 18 hr at 37° C. (5% CO2). After the cell stimulation, ˜150 μl supernatant were transferred from each well into 96-well filter plates (Coming PVDF Filter Plates) spun down (2000 rpm, 2-3 minutes) and either used immediately for ELISA or LUMINEX measurements or frozen down at −80° C. for future use.
(§7) Luminex immunoassay multiplexing for TNF, IL-2, GMSCF, IL-4 and IFNg was performed essentially as described by the manufacturer (Upstate Biotechnology). Essentially 50 uL of sample was diluted into 50 uL assay diluent and 50 uL incubation buffer, then incubated with 100 uL of the diluted detection antibody for 1 hr at RT in the dark. The filter plate was washed 2× in Wash Buffer, then incubated with 100 uL of the diluted secondary reagent (SAV-RPE) for 30 min at RT in the dark. Finally the plates were washed 3 times and bead identification and RPE fluorescent measured by the Luminex instrument.
(§8) Varied concentrations of compound were compared to solvent only to determine the inhibition of T-cell activation IC50 of each compound.

Primary T-cells [12] = assay: Primary T-cell cytokine production (αCD3/αCD28): IL-4; assay type: cell-based, human; settings: read-out: 1° T-Cell IL4 IC50
Protocol: as §4, §5, §6, §7, §8

Primary T-cells [13] = assay: Primary T-cell cytokine production (αCD3/αCD28): TNF; assay type: cell-based, human; settings: read-out: 1° T-Cell TNF IC50
Protocol: as §4
(5% CO2) for at 3-5 hours. After incubation with the stimulation antibodies, the cocktail was removed and the plates washed 3 times with PBS prior to addition of the primary T cell/compound mixture.
as §6, §7, §8

[14] = system: cultured human mast cells (CHMC); assay: CHMC low cell density IgE activation: tryptase assay; assay type: cell-based; settings: low cell density; read-out: CHMC anti-IgE Tryptase
Method in brief: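 Supernatant tryptase activity, assayed with substrate for 30 min at room temperature, served as the degranulation measure. Mast cells (1000-1500 per well depending on donor) sat 1 hr at 37° C in MT before a 30 min anti-IgE challenge at 37° C.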

Primary T-cells [15] = assay: Primary T-cell cytokine production (αCD3/αCD28): IL-2; assay type: cell-based, human; settings: read-out: 1° T-Cell IL2 IC50
Protocol: as §4, §5, §6
IL-2 ELISAs were performed using the Quantikine Human IL-2 ELISA kit (R&D Systems, Catalog # D2050) as described by the manufacturer and absorption was measured on a spectrophotometer at 450 nm wavelength. Blank values were substracted and absorbances were converted to pg/mL based on the standard curve.
as §7, §8

Syk kinase = target: T1, Syk kinase (Homo sapiens, UniProt P43405); assay: Syk kinase biochemical fluorescence polarization assay; settings: isolated Syk kinase, fluorescence polarization, 4 uM ATP
T1 construct: purchased Upstate, Lake Placid NY

Primary T-cells [16] = assay: Primary T-cell cytokine production (αCD3/αCD28): GMSCF; assay type: cell-based, human; settings: read-out: 1° T-Cell GMSCF IC50
Protocol: as §4, §5, §6, §7, §8

[17] = system: bone marrow derived mast cells (BMMC); assay: BMMC high cell density IgE activation: IL-6; assay type: cell-based, mouse; settings: high cell density; read-out: BMMC anti-IgE IL-6
Protocol: as §3

[18] = High Density, read-out: BMMC anti-IgE hexos

`CCOc1ccc(Nc2nc(Nc3ccc(OC)c(OC)c3)ncc2F)cc1` [Compound R926108] was tested, and the IC50 (B-cell line BJAB) was over 10 µM, the IC50 [1] was over 10 µM and the IC50 [2] was 0.76 µM. It also gave an IC50 [3] of 0.787 µM, an IC50 [4, 18] of 0.9 µM and an IC50 [5] of 0.95 µM. For the same molecule, the IC50 (Jurkat cells) was over 10 µM, the IC50 [6] was 10.4 µM and the IC50 [7] was over 10 µM. The IC50 [8] was 6.4 µM.
Molecule `CCOc1ccc(Nc2nc(Nc3cccc(O)c3)ncc2F)cc1` [Compound R926146] has an IC50 (B-cell line BJAB) of over 10 µM, an IC50 [2] of 1.59 µM and an IC50 [3] of 0.761 µM. The IC50 [4, 18] was 1.35 µM, the IC50 (Jurkat cells) was over 10 µM and the IC50 [6] was over 10 µM. The IC50 [7] was 5 µM and the IC50 [8] was 6.7 µM.
For `CNC(=O)COc1cccc(Nc2ncc(F)c(Nc3ccc4c(c3)NC(=O)[C@H](C)O4)n2)c1` [Compound R909317], the IC50 ([9]; low cell density, read-out: CHMC Ionomycin Tryptase) was over 10 µM, the IC50 [10] was 0.007 µM and the IC50 ([4]; high cell density, read-out: BMMC anti-IgE Hexos.) was 0.002 µM. It also gave an IC50 (Primary T-cells [11]) of 1.57 µM, an IC50 (Primary T-cells [12]) of 0.876 µM and an IC50 (Primary T-cells [13]) of 0.595 µM. For the same molecule, the IC50 [14] was 0.0287 µM, the IC50 (Primary T-cells [15]) was 1.32 µM and the IC50 (Syk kinase) was 0.008 µM. The IC50 (Primary T-cells [16]) was 1.74 µM, the IC50 [6] was 0.224 µM and the IC50 [17] was 0.006 µM.
In the case of `Oc1cccc(Nc2ncc(F)c(Nc3ccc4c(c3)OCCO4)n2)c1` [Compound R926210], the IC50 (B-cell line BJAB) is reported as over 10 µM, the IC50 [1] is reported as over 10 µM and the IC50 ([9]; Low Density CHMC, ionomycin activation, tryptase release, read-out: CHMC Ionomycin Tryptase IC50) is reported as over 10 µM. For the same molecule, the IC50 [2] was 0.8 µM, the IC50 [4, 18] was 0.6 µM and the IC50 [5] was 0.37 µM. The IC50 (Jurkat cells) was over 10 µM, the IC50 [6] was 4.38 µM and the IC50 [7] was over 10 µM. The IC50 [8] was over 10 µM.
